Values of other authors, collected in patent publication US10709751B2, “Chardonnay grape seed extract” (SHAKLEE CORPORATION, priority 2014, dated 2020).

Tests used:
[1] = laboratory studies
neurons = conditions: laboratory studies

| crossing of the blood-brain barrier [1] | Molecule | growth and development of neurons (neurons) |
| --- | --- | --- |
| cross the blood-brain barrier | Oc1cc(O)c2c(c1)O[C@H](c1ccc(O)c(O)c1)[C@H](O)C2 [epicatechin] | – |
| cross the blood-brain barrier | COc1cc(/C=C/c2ccc(O)cc2)cc(OC)c1 [pterostilbene] | – |
| – | chlorogenic acids | stimulate growth and development of neurons |
